The source made the active and inactive calls. The rule behind the calls is not given here.

Series [1] in a line: Terminal half life in iv dosed mouse. Type of series: ADME, organism-based. The following applies: in vivo, read-out: beta t1/2.
Series [2] deals with T1, Connector enhancer of kinase suppressor of ras 1 (Homo sapiens, UniProt Q969H4).
T1 sequence (Q969H4 whole entry): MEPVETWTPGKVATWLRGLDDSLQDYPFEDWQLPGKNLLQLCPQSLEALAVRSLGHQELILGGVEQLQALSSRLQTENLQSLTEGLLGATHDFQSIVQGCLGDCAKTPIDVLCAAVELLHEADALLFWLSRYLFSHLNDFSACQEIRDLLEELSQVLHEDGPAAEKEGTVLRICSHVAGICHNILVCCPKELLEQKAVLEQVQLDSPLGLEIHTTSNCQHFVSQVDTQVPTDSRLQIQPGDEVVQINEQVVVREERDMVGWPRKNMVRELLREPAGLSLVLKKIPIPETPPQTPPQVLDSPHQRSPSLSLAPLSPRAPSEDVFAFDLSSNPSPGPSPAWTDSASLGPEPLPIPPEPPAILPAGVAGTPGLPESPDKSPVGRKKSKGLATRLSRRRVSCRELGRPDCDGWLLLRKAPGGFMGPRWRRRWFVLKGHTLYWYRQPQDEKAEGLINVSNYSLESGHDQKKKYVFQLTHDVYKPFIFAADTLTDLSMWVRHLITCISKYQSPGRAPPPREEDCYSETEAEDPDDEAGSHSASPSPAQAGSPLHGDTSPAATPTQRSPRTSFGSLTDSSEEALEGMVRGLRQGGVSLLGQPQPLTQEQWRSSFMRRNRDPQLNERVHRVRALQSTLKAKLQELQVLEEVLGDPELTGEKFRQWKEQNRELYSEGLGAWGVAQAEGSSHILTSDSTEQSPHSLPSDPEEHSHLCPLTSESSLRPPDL
The experiment in a line: Binding affinity to CNKSR1 PH-domain (unknown origin) by SPR spectroscopy. To be noted: read-out: Kd. For orientation: In SPR one partner is held on a chip, and binding of the other changes the refractive index at the surface.

For the next series, the system named is HCC515. The experiment in a line: Growth inhibition of human HCC515 cells relative to control. Type of series: functional, cell-based.
Another series relates to A549. Kind of series: Growth inhibition of human A549 cells relative to control. The series is classed as functional, cell-based.
The target in series [3] is T2, 3-phosphoinositide-dependent protein kinase 1 (Homo sapiens) (UniProt O15530).
T2 sequence (whole entry): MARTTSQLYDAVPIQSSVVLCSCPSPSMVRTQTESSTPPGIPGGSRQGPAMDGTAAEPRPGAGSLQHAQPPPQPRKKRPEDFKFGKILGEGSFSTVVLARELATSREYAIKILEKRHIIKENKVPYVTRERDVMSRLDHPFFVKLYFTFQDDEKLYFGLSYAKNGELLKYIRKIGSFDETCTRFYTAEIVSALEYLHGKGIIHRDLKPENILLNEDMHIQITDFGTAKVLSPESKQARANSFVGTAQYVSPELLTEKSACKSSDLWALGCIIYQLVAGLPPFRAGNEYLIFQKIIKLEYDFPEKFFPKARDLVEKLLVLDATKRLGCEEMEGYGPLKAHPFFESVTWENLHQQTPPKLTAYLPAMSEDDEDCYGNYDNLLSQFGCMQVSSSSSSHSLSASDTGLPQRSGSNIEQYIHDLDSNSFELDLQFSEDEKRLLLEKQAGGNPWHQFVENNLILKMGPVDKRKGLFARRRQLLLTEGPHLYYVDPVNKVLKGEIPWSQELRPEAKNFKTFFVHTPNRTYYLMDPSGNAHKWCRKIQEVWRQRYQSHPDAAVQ
The experiment in a line: Binding affinity to PDPK1 PH-domain (unknown origin) at 0.01 to 50 uM by SPR spectroscopy.

For series [4], the target named is T3, Connector enhancer of kinase suppressor of ras 1 (Homo sapiens) (UniProt Q969H4).
T3 sequence (whole entry): T1 sequence (Q969H4 whole entry)
Kind of series: Inhibition of CNKSR1 PH-domain (unknown origin) assessed as reduction in c-RAF Ser338 phosphorylation at 25 to 50 uM by cell based Western blot analysis. Background: In western blotting, separated proteins are transferred to a membrane and probed.

Series [5] can be described thus: Toxicity in SCID mouse xenografted with human NCI-H2122 cells assessed as induction of weight loss at 200 mg/kg/day dosed via gavage daily for 20 days. Type of series: organism-based. The following applies: in vivo, po, 480 h. For orientation: Xenograft models place foreign cells or tissue in a host animal.
Series [6] is described as follows: Toxicity in SCID mouse xenografted with human NCI-H2122 cells assessed as induction of observable toxic effects at 200 mg/kg/day dosed via gavage daily for 20 days. Type of series: organism-based. The following applies: in vivo, po, 480 h.
A further series relates to NCI-H2122. Kind of series: Antitumor activity against human NCI-H2122 cells xenografted in SCID mouse assessed as inhibition of tumor growth at 200 mg/kg/day dosed via gavage daily for 20 days relative to control. The series is classed as functional. To be noted: NCI-H2122, po, 480 h, read-out: TGI.
A short description of series [7]: Plasma concentration in C57BL6 mouse at 250 mg/kg, po dosed via gavage as single administration. The series is classed as ADME, organism-based. To be noted: in vivo.
Another series concerns HCC95. Kind of series: Growth inhibition of human HCC95 cells incubated for 3 days. The following applies: HCC95, 72 h. The series is classed as functional, cell-based.
The nature of series [8]: Growth inhibition of human […] cells incubated for 3 days. The series is classed as functional. To be noted: 72 h.
Series [9] can be described thus: Half life in mouse plasma at 50 ug/ml at 37 degC at pH 7.4. The series is classed as ADME, cell-free.
Series [10] can be described thus: Half life in human plasma at 50 ug/ml at 37 degC at pH 7.4. The series is classed as ADME, cell-free.
Series [11] is described as follows: Half life in 10% fetal bovine serum at 50 ug/ml at 37 degC at pH 7.4. The series is classed as ADME, cell-free, Bos taurus. The following applies: cattle.
In series [12] the target is T3, Connector enhancer of kinase suppressor of ras 1 (Homo sapiens). Kind of series: Inhibition of GFP-tagged CNKSR1 (unknown origin) expressed in HEK293T cells assessed as blocking of membrane colocalization of CNKSR1 and mutant-KRas at plasma membrane at 50 uM incubated for 4 hrs by confocal imaging assay. Type of series: cell-based.
The target is the same in series [13]. The experiment in a line: Inhibition of GFP-tagged CNKSR1 (unknown origin) expressed in HEK293T cells assessed as reduction in total mutant-KRas protein at 50 uM incubated for 4 hrs by confocal imaging assay. The series is classed as cell-based.
For series [14] the target is unchanged. Kind of series: Inhibition of CNKSR1 (unknown origin) assessed as reduction in inhibition of KRas signaling effectors by measuring p-AKT levels at 20 uM by cell based assay.
Series [15] has the same target. Kind of series: Inhibition of CNKSR1 (unknown origin) assessed as reduction in inhibition of KRas signaling effectors by measuring p-MAPK levels at 20 uM by cell based assay.

Take `CCOC(=O)Cc1nn(Cc2nc(-c3ccc(C)cc3)cs2)c(=O)c2ccccc12`: in series [1], the half-life came out at 3 min. For the same compound, the Kd in series [2] fell in the range of 1800 to 3200 nM. Moreover, the “growth inhibition (GI)” value in the series with HCC515 and in the series with A549 was “Active” in each case. Also, in [3], the outcome was inactive. For the same compound, the inhibition entry in series [4], in series [12], in series [13], in series [14] and in [15] was “Active” in each case. The Activity entry in series [5] and in series [6] was “Non-Toxic” in each case. For the same compound, in the series with NCI-H2122, the inhibition in vivo at 200 mg/kg/day stood at 45%. The concentration in series [7] came to 7 µM. Besides, the figures for the IC50 (in the series with HCC95; in [8]) were over 100 µM and 51 µM, respectively. In addition, the half-life at 50 ug/ml in series [9] stood at 6.3 min; in [11], 790 min. The t1/2 entry in series [10] is on record as “Stable”.

Broadly, the Kd is the free concentration of one partner at which half of the binding sites on the other are occupied at equilibrium, for simple one-to-one binding. One may read the IC50 as the concentration at which inhibition is half-maximal. Read a high IC50 as lower potency.

Source of the values: ChEMBL document CHEMBL4419164, “Methods and compositions for inhibiting cnksr1” (2018).
